# Test results as given in patent publication US20260071220A1, “CONJUGATE OF NUCLEOTIDE ANALOG-CONTAINING DOUBLE-STRANDED RNAI ANALOG” (BaseCure Therapeutics LLC, priority 2022, published 2026).
# “And” between values parts separate entries of the source, which are not always exact repeats. Equal values may be shown once. In the oligonucleotide strings, read from the 5' end, every base follows the letter of its sugar. An asterisk marks phosphorothioate; unmarked linkages are phosphodiester. Other units and linkages are bracketed, terminal groups are in braces. A string of capitals states the bases alone. {D01} = GalNAc ligand D01, attached to sense strand by a phosphodiester bond; m = 2'-O-methyl; f = 2'-fluoro
# Experiments:
# Transcriptome = test: In vitro RNA sequencing study (off target risk); type: cell-based
# Text: Transcriptome refers to a sum of all RNA transcripted from specific tissues or cells at a certain time or state, mainly including mRNA and non-encoding RNA. Transcriptome sequencing is to study all mRNA transcripted from specific tissues or cells during a certain period based on an Illumina sequencing platform, is a basis for gene functions and structure study, and plays an important role in understanding the development of organisms and the occurrence of diseases. With the development of gene sequencing technologies and reduction in sequencing cost, RNA-seq, with its advantages of high throughput, high sensitivity and wide application range, has become a main method for transcriptome study. The RNA-seq technical process mainly includes two parts: library construction and sequencing, and biological information analysis.
# RNA was extracted from tissues or cells using a standard extraction method, and subsequently serious quality control was performed on RNA samples. The quality control method was mainly achieved by Agilent 2100 bioanalyzer to precisely detect the integrity of RNA.
# mRNA was obtained mainly by the following two methods: one was to utilize the structural feature that most mRNA in eukaryotes had polyA tails to enrich mRNA with polyA tails using Oligo (dT) magnetic beads; and the other one was to remove ribosomal RNA from total RNA to obtain mRNA. Subsequently, the obtained mRNA was randomly fragmented using divalent cations in NEB Fragmentation Buffer, and library construction was carried out using either an NEB ordinary library construction method or a strand specific library construction method.
# NEB ordinary library construction: a first strand of a cDNA was synthesized in an M-MuLV reverse transcriptase system by using fragmented mRNA as a template and random oligonucleotides as primers. Subsequently, the RNA strand was digested using RNaseH, and a second strand of the cDNA was synthesized in a DNA polymerase I system using dNTPs as a raw material. The purified double-stranded cDNA was subjected to end repair, A tail addition and sequencing linker linkage. About 250-300 bp cDNAs were screened using AMPure XP beads and subjected to PCR amplification, and the PCR product was purified again using AMPure XP beads to finally obtain a library. A kit for library construction was NEBNext® Ultra™ RNA Library Prep Kit for Illumina®.
# Strand specific library construction: a method for synthesizing the first strand of cDNA was the same as the NEB ordinary library construction method except that when the second strand was synthesized, dTTP in dNTPs was replaced by dUTP, and then end repair, A tail addition, sequencing linker linkage and length screening of cDNA were similarly carried out. Subsequently, the second strand of cDNA containing U was digested using USER enzyme followed by PCR amplification to obtain the library. […] A kit used for the library construction was NEB Next® Ultra™ Directional RNA Library Prep Kit for Illumina®.
# After library construction was completed, preliminary quantification was carried out using Qubit2.0 Fluorometer. The library was diluted to 1.5 ng/uL, and subsequently the insert size of the library was detected using Agilent 2100 bioanalyzer. After the insert size met the expectation, the effective concentration of the library was accurately quantified by QRT-PCR (the effective concentration of the library was higher than 2 nM) to ensure the quality of the library.
# After library inspection was qualified, different libraries were subjected to Illumina sequencing after pooling according to effective concentration and target offline data volume requirements. The basic principle of sequencing was sequencing by synthesis. Four fluorescent labeled dNTPs and DNA polymerases as well as linker primers were added in the sequenced flow cell for amplification. […]
# AGT protein = test: In vivo PD experiment of non-human primate cynomolgus monkey (plasma AGT protein); settings: for plasma AGT protein level after administration/before administration, Average: group average; for plasma AGT protein level after administration/before administration: individual animal
# Text: The downregulation degree of cynomolgus monkey plasma AGT by the sample to be tested was observed through a non-human primate cynomolgus monkey model highly homologous to a human in AGT gene.
# 2. Experimental materials: cynomolgus monkeys, 1×PBS (phosphate buffer solution), AD-85481 (US2021095290), and a conjugate of the present invention.
# 10 cynomolgus monkeys with the weight of 2-3 kg were purchased, and the animals were adapted to quarantine for one week after arriving at an animal room.
# On Day −6, cynomolgus monkeys were divided into groups at random according to weight data, with 2 cynomolgus monkeys in each group, the AGT protein concentrations in plasmas of all the cynomolgus monkeys were detected after grouping as an experimental data baseline for each group.
# Administration was performed on Day 1. Group 1 was dosed with 1×PBS; group 2 was subcutaneously injected with AD-85481 at the dose of 0.3 mpk; group 3 was subcutaneously injected with AD-85481 at the dose of 3 mpk; group 4 was subcutaneously injected with the conjugate 2 of the present invention at the dose of 0.3 mpk; group 5 was subcutaneously injected with the conjugate 2 of the present invention at the dose of 3 mpk. Blood was collected on Day 1, 2, 4, 8, 15, 22, 29, 32, 35, 43, 57, 71 after administration to detect the AGT protein concentration in plasma of each cynomolgus monkey. By comparing the AGT protein concentration in plasma after administration to the AGT protein concentration on Day −6, the relative downregulation proportion of the AGT proteins in each group of animals was obtained.
# 4. In the table, the data represent AGT gene expression level after administration/AGT gene expression level before administration.
substance,measurement,setting,value
"Conjugate 2: Double-stranded RNAi analog against AGT, D01 GalNAc ligand on sense strand; sense SEQ ID NO: 6, antisense SEQ ID NO: 2 containing Z (sense mA*mU*fCfCmAfCfAfAmUmGmAmGmAfGmUmAmCmA-{D01}; antisense CUCACAUGUACNCUCAUUGUGGAUGACGA; antisense: chemistry not given here; antisense strand modified, includes nucleotide analog Z, further chemistry not fully specified)",Downregulate Average,"Transcriptome; number of downregulated genes, average",658
same,Downregulate N = 1,"Transcriptome; number of downregulated genes, replicate 1",1006
same,Downregulate N = 2,"Transcriptome; number of downregulated genes, replicate 2",309
same,Upregulate Average,"Transcriptome; number of upregulated genes, average",722
same,Upregulate N = 1,"Transcriptome; number of upregulated genes, replicate 1",1033
same,Upregulate N = 2,"Transcriptome; number of upregulated genes, replicate 2",410
same,Total Average,"Transcriptome; total regulated genes, average",1379
same,Total N = 1,"Transcriptome; total regulated genes, replicate 1",2039
same,Total N = 2,"Transcriptome; total regulated genes, replicate 2",719
same,"plasma AGT protein level after administration/before administration, Average","AGT protein; 0.3 mg/kg single s.c., Day 22 vs Day -6",25.72%
same,"plasma AGT protein level after administration/before administration, Average","AGT protein; 0.3 mg/kg single s.c., Day 71 vs Day -6",51.76%
same,"plasma AGT protein level after administration/before administration, Average","AGT protein; 3 mg/kg single s.c., Day 22 vs Day -6",2.47%
same,"plasma AGT protein level after administration/before administration, Average","AGT protein; 3 mg/kg single s.c., Day 71 vs Day -6",9.88%
same,plasma AGT protein level after administration/before administration,"AGT protein; 0.3 mg/kg single s.c., Day 22 vs Day -6, 0.3 mg/kg",28.47% and 22.96%
same,plasma AGT protein level after administration/before administration,"AGT protein; 0.3 mg/kg single s.c., Day 71 vs Day -6, 0.3 mg/kg",55.17% and 48.35%
same,plasma AGT protein level after administration/before administration,"AGT protein; 3 mg/kg single s.c., Day 22 vs Day -6, 3 mg/kg",0.84% and 4.09%
same,plasma AGT protein level after administration/before administration,"AGT protein; 3 mg/kg single s.c., Day 71 vs Day -6, 3 mg/kg",10.84% and 8.92%
